These results are taken from US20180071307A1, “MEDICINAL COMPOSITION FOR ALLEVIATING ENDOMETRIOSIS AND COMPLICATIONS THEREOF AND USE OF THE SAME” (NATIONAL SUN YAT-SEN UNIVERSITY, priority 2016, published 2018).

Experiment [1] has as its system ovarian clear cell carcinoma cell lines ES-2 and TOV-21G. The experiment is described as follows: cell growth via MTT assay. The class given is cell-based, human. To be noted: after 48 h of treatment. The text has this:
(§1) For anti-ribosome biogenesis assays, including cell growth, cell migration and cell cycle analysis, ovarian clear cells were maintained for five days in culture medium with or without RNA polymerase I inhibitor, CX-5461 (Selleckchem, Houston, Tex.) or GSK2126458 (GlaxoSmithKline, Middlesex, United Kingdom).
(§2) Please refer to FIGS. 4A to 4E, which illustrate that mTOR/c-Myc inhibition suppresses cell growth and mobility of ovarian clear cells according to an embodiment of the present invention. FIG. 4A is depicted to ovarian cancer cell lines, ES-2 and TOV-2IG, treated with the mTOR/c-Myc inhibitor, GSK2126458, at a final concentration of 50 nM. GSK2126458 effects on effectors of ribosome biogenesis were measured by qPCR at the indicated time points. […] FIG. 4B is depicted to GSK2126458 effects on cell growth were assessed via MTT assay. FIG. 4C is depicted to cell mobility measured using wound-healing migration assays. Cells migrating into the detection zone were counted and averaged from eight replicates. […] FIG. 4E is depicted to cell cycle inhibited by GSK2126458 after 48 hours of treatment and analyzed by flow cytometry using propidium iodide DNA staining. […]
(§3) Please refer to FIGS. 5A to 5D, which illustrate that RNA polymerase 1 inhibition suppresses cell growth and mobility of ovarian clear cells. […] FIG. 5B is depicted to CX-5461 effects on cell growth were assessed via MTT assay. […]
In general terms: Tetrazolium dyes change colour on reduction, which living cells bring about.

In a further experiment the test system is TOV-21G cells. In words: cell cycle analysis by flow cytometry using propidium iodide DNA staining, TOV-21G. To be noted: after 96 h of treatment. The class given is cell-based, human.
Description: as §1
(§4) Please refer to FIGS. 5A to 5D, which illustrate that RNA polymerase 1 inhibition suppresses cell growth and mobility of ovarian clear cells. FIG. 5A is depicted to cells treated with the RNA polymerase 1 inhibitor, CX-5461, at a final concentration of 25 nM. CX-5461 effects on downstream effectors of ribosome biogenesis were measured by qPCR at the indicated time points. Data were represented as means of triplicates with standard variations. FIG. 5B is depicted to CX-5461 effects on cell growth were assessed via MTT assay. FIG. 5C is depicted to cell mobility measured using wound-healing migration assays. Cells migrating into the detection zone were counted and averaged from eight replicates. FIG. 5D is depicted to treated cells that were analyzed at the indicated time points by flow cytometry using propidium iodide DNA staining.

In another experiment the test system is endometriosis lesions. In words: mouse model of endometriosis: lesion numbers. The class given is in vivo, C57BL/6 mice. As to conditions: compared to respective vehicle; CX-5461 1.25 mg/100 μL thrice per week, GSK2126458 0.075 mg/100 μL five times per week, three weeks. The method, then:
(§5) Mature (approximately 8-week-old) female C57BL/6 mice were purchased from Harlan Laboratories (Derby, UK) and were allowed to acclimate for 1 week before surgery. Mice were maintained on standard chow and water available ad libitum and were housed in environmentally controlled facilities illuminated between 7:00 AM and 7:00 PM. All the animal procedures were performed in accordance with legal requirements.
(§6) Typically, menstruation was induced in adult donor mice (approximately 8 weeks of age) using a protocol developed as aforemented. In brief, long-term ovariectomized (OVE) mice (day 1) were primed with s.c. injections of 100 ng of estradiol-17β (days 7 to 9), treated with progesterone (P4; Sigma-Aldrich, Dorset, UK) delivered via a SILASTIC implant (Dow Corning Corp, Midland, Mich.) from days 13 to 19, and injected with 5 ng of estradiol-17β in sesame oil on days 13, 14, and 15. Decidualization was induced in one uterine horn using […] of oil (day 15), and endometrial tissue in the process of being shed from the decidualized horn was recovered from mice culled on day 19, 4 hours after P4 withdrawal (removal of pellet) by opening the horn longitudinally in a petri dish and scraping the tissue away from the myometrial layer using a scalpel. […]

For experiment [2], the system named is endometriosis-related pain. In words: mouse model of endometriosis: pressure pain thresholds (mechanical hyperalgesia). The class given is in vivo, C57BL/6 mice. To be noted: versus vehicles; for abdominal retraction threshold: day 33 to day 40 (FIG. 9B); for paw withdrawal threshold: hind paw, day 33 to day 40 (FIG. 9C). Here is the method: as §5
as §6, with “scalpel. The tissue mass was suspended in 0.2 mL of PBS and passed through a 19-gauge needle before being injected i.p. into anesthetized recipient mice (approximately 8 weeks of age) that had been previously ovariectomized and implanted with an estradiol-17β (Sigma-Aldrich) SILASTIC implant (FIG. 6). Tissue from one decidualized donor horn was used to inoculate each recipient mouse (approximately 40 mg tissue/0.2 mL PBS per mouse) on day 19.” for “scalpel.”
Pressure pain thresholds were assessed by a commercially available pain evaluation kit (Touch Test® Sensory Evaluators (North Coast Medical Inc., CA, U.S.A.). This pain evaluation kit has different probes (or needles) of different diameters, which were respectively stab the abdomen or the palmar side of the hind paw of mice. Mice were instructed to signal when the stimulus became painful, and observed which size cause painful. Threshold levels (gravity, g) were assessed before and after the test, and the average of three measures were calculated, for evaluating abdominal retraction threshold (g) or paw withdrawal threshold (g) of each mouse. […]

The subject of experiment [3] is endometriosis-related pain. The experiment is described as follows: mouse model of endometriosis: tunnel entries (overall activity). In kind it is in vivo, C57BL/6 mice. As to conditions: versus vehicles; day 33 to day 40 (FIG. 9A). Here is the method:
as §5
Typically, menstruation was induced in adult donor mice (approximately 8 weeks of age) using a protocol developed as aforemented. In brief, long-term ovariectomized (OVE) mice (day 1) were primed with s.c. injections of 100 ng of estradiol-17β (days 7 to 9), treated with progesterone (P4; Sigma-Aldrich, Dorset, UK) delivered via a SILASTIC implant (Dow Corning Corp, Midland, Mich.) from days 13 to 19, and injected with 5 ng of estradiol-17β in sesame oil on days 13, 14, and 15. […]
On day 33 to day 40, some behavior tests were scored from tunnel entries and pressure pain thresholds. Mice freely moved in three cages connected by tunnels, and numbers of tunnel entered by each mouse were measured in five minutes, and the average of three measures were calculated, for evaluating overall activity of each mouse. […]

Experiment [4] has as its system ovarian clear cell carcinoma cell lines ES-2 and TOV-21G. In words: wound-healing migration assay (cell mobility). The class given is cell-based, human. To be noted: after 48 h of treatment.
Description: as §1, §2, §3

For experiment [5], the system named is inflammatory cells (small peritoneal macrophages, neutrophils) in abdominal cavity. In words: mouse model of endometriosis: inflammatory cells in abdominal cavity. In kind it is in vivo, C57BL/6 mice. To be noted: comparing with naive, sham and vehicles; for small peritoneal macrophages in abdominal cavity: three weeks of treatment (FIG. 8A); for neutrophils in abdominal cavity: three weeks of treatment (FIG. 8B). Here is the method: as §5
Typically, menstruation was induced in adult donor mice (approximately 8 weeks of age) using a protocol developed as aforemented. In brief, long-term ovariectomized (OVE) mice (day 1) were primed with s.c. injections of 100 ng of estradiol-17β (days 7 to 9), treated with progesterone (P4; Sigma-Aldrich, Dorset, UK) delivered via a SILASTIC implant (Dow Corning Corp, Midland, Mich.) from days 13 to 19, and injected with 5 ng of estradiol-17β in sesame oil on days 13, 14, and 15. Decidualization was induced in one uterine horn using […] of oil (day 15), and endometrial tissue in the process of being shed from the decidualized horn was recovered from mice culled on day 19, 4 hours after P4 withdrawal (removal of pellet) by opening the horn longitudinally in a petri dish and scraping the tissue away from the myometrial layer using a scalpel. The tissue mass was suspended in 0.2 mL of PBS and passed through a 19-gauge needle before being injected i.p. into anesthetized recipient mice (approximately 8 weeks of age) that had been previously ovariectomized and implanted with an estradiol-17β (Sigma-Aldrich) SILASTIC implant (FIG. 6). Tissue from one decidualized donor horn was used to inoculate each recipient mouse (approximately 40 mg tissue/0.2 mL PBS per mouse) on day 19. In FIG. 6, there are four groups: B, injecting recipient mice with EV once and vehicle of CX-5461 every Monday, Wednesday and Friday for three weeks; GSK, injecting recipient mice with EV once and GSK2126458 on Monday to Friday for three weeks; A, injecting recipient mice with EV once and vehicle of GSK2126458 on Monday to Friday for three weeks; Sham, injecting recipient mice with EV once (no endometriosis, hormone treatment); Naive, mice without endometriosis or treated with any hormone or drug.
[…] E2 (E2, 100 ng/100 μL or 5 ng/100 μL) was diluted in sesame oil. Estradiol valerate (EV, 500 ng/100 μL) was diluted in sesame oil. P4 pellet was fused with progesterone (P4; Sigma-Aldrich, Dorset, UK) delivered via a SILASTIC implant (Dow Corning Corp, Midland, Mich.). […]

The subject of experiment [6] is effectors of ribosome biogenesis (selected snoRNAs and RPs). In words: qPCR of effectors of ribosome biogenesis in ovarian clear cell carcinoma cells. In kind it is cell-based, human. To be noted: ES-2 and TOV-21G, following 24 h of treatment.
Description: as §1, §2, §3
In general terms: Quantitative PCR measures a nucleic acid by following its amplification.

In another experiment the test system is ES-2 cells. The experiment is described as follows: cell cycle analysis by flow cytometry using propidium iodide DNA staining, ES-2. The class given is cell-based, human. To be noted: after 96 h of treatment.
Description: as §1, §4
For orientation: In flow cytometry, cells or beads pass a laser one at a time.

Experiment [7] deals with ovarian clear cell carcinoma cell lines ES-2 and TOV-21G. The experiment is described as follows: DNA synthesis (BrdU incorporation). As to conditions: after 48 h of treatment. The class given is cell-based, human.
Description: as §1
(§7) Please refer to FIGS. 4A to 4E, which illustrate that mTOR/c-Myc inhibition suppresses cell growth and mobility of ovarian clear cells according to an embodiment of the present invention. FIG. 4A is depicted to ovarian cancer cell lines, ES-2 and TOV-2IG, treated with the mTOR/c-Myc inhibitor, GSK2126458, at a final concentration of 50 nM. GSK2126458 effects on effectors of ribosome biogenesis were measured by qPCR at the indicated time points. Data were represented as means of triplicates with standard variations. FIG. 4B is depicted to GSK2126458 effects on cell growth were assessed via MTT assay. FIG. 4C is depicted to cell mobility measured using wound-healing migration assays. Cells migrating into the detection zone were counted and averaged from eight replicates. FIG. 4D is depicted to DNA synthesis (BrdU incorporation) of cells influenced by GSK2126458. FIG. 4E is depicted to cell cycle inhibited by GSK2126458 after 48 hours of treatment and analyzed by flow cytometry using propidium iodide DNA staining. The cell cycle of many cells was inhibited and arrested at G1 phase.

Experiment [8] shares this test system. The experiment is described as follows: cell cycle analysis by flow cytometry using propidium iodide DNA staining (both cell lines, result in words). In kind it is cell-based, human. As to conditions: after 48 hours of treatment (FIG. 4E).
Description: as §1, §7

In the case of `Cc1cnc(CNC(=O)c2c(=O)c3ccc(N4CCCN(C)CC4)nc3n3c2sc2ccccc23)cn1` [CX-5461], the cell proliferation rate result in [1] is reported as “decreased”. In addition, in the experiment on TOV-21G cells, the “cell arrest at G2/M-phase” value was 52.3% and the cell death turned out to be 23.4%. The lesion numbers entry in the experiment on endometriosis lesions is reported as “significantly reduced”. In experiment [2], the abdominal retraction threshold entry was “higher” and the paw withdrawal threshold result was “higher”. Further, the “overall activity (tunnel entries in five minutes)” value in experiment [3] is on record as “more active”. In experiment [4], the cell mobility rate entry was “decreased”. Also, in experiment [5], the “small peritoneal macrophages in abdominal cavity” value is listed as “significantly reduced” and the “neutrophils in abdominal cavity” value was “significantly reduced”. For the same compound, the “expression of the selected snoRNAs and RPs (qPCR, FIG. 5A)” value in experiment [6] (CX-5461 at 25 nM) is “reduced”. Further, in experiment [6] (FIG. 4A legend: GSK2126458 at 50 nM), the “expression of the selected snoRNAs and RPs (qPCR, FIG. 4A)” value is given as “reduced”. Besides, in the experiment on ES-2 cells, the “cell arrest at G2/M-phase” value was found to be 48.1% and the cell death turned out to be 12.3%. The DNA synthesis result in experiment [7] is “inhibition”.
As for `COc1ncc(-c2ccc3nccc(-c4ccnnc4)c3c2)cc1NS(=O)(=O)c1ccc(F)cc1F` [GSK2126458, 2,4-difluoro-N-[2-methoxy-5-[4-(4-pyridazinyl)-6-quinolinyl]-3-pyridinyl]benzenesulfonamide], in [1], the cell proliferation rate result is reported as “decreased”. For the same compound, in experiment [8], the cell cycle arrest result is listed as “cell arrest at G1-phase” and the “cells of sub-G1 phase (implying cell death)” value was “increased”. The lesion numbers entry in the experiment with endometriosis lesions is on record as “significantly reduced”. In [2], the abdominal retraction threshold entry was “higher” and the paw withdrawal threshold entry is given as “higher”. Besides, in [3], the “overall activity (tunnel entries in five minutes)” value is recorded as “more active”. In addition, the cell mobility rate result in [4] is listed as “decreased”. Besides, in experiment [5], the “small peritoneal macrophages in abdominal cavity” value is “significantly reduced” and the “neutrophils in abdominal cavity” value is “significantly reduced”. In addition, the DNA synthesis result in experiment [7] is “inhibition”.
